The values below come from ChEMBL document CHEMBL4706743, “2-Cyanoisonicotinamide Conjugation: A Facile Approach to Generate Potent Peptide Inhibitors of the Zika Virus Protease” (ACS Med Chem Lett, 2021).

This assay can be described thus: Inhibition of Zika virus NS2B (45 to 96 residues)/N-terminal thrombin cleavage fused and His6-tagged NS3 (1 to 177 residues) protease expressed in Escherichia coli using Bz-Nle-Lys-Lys-Arg-AMC as substrate preincubated for 10 mins followed by substrate addition and measured for 5 mins by fluorophotometric analysis.

`N=C(N)NCCC[C@@H]1NC(=O)[C@H](CCCCN)NC(=O)CNC(=O)[C@@H]2CSC(=N2)c2cc(ccn2)C(=O)NCC[C@@H](C(N)=O)NC(=O)[C@H](CCCCN)NC1=O` came in with a Ki of 14.3 µM.

The compound `N=C(N)NCCC[C@@H]1NC(=O)[C@H](CCCCN)NC(=O)CNC(=O)[C@@H]2CSC(=N2)c2cc(ccn2)C(=O)NCCC[C@@H](C(N)=O)NC(=O)[C@H](CCCCN)NC1=O` came in with a Ki of 1.76 µM. This Ki lies about 8.1-fold lower than the previous one.

One may read the Ki as a dissociation constant, usually derived from enzyme kinetics or from competition with a known ligand. High values mean weaker binding, low ones tighter binding.
